From article PMC5716539, “The acute glucose lowering effect of specific GPR120 activation in mice is mainly driven by glucagon-like peptide 1” (PLoS ONE, 2017)
Like-named read-outs stand apart in the source and are kept apart here. Each block holds one molecule with its values, some of them ahead of it.

How the values were obtained:
mouse GPR40 = target: T1, mouse GPR40 (Mus musculus, UniProt Q76JU9); assay: Calcium mobilization assay in HEK293-mGPR40 cells; type: cell-based; conditions: calcium mobilization
T1 construct: expressed in transfected cells
T1 sequence (Q76JU9 whole entry): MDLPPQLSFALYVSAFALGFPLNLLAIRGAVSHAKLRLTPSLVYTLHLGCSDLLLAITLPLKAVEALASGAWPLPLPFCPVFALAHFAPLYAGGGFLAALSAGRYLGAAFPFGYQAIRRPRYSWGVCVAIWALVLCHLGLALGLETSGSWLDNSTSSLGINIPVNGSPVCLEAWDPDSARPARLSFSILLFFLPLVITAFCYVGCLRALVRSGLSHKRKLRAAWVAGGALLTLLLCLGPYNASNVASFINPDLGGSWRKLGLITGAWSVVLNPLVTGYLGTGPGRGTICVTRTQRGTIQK
Method: CHO-hGPR120 and CHO cells were cultured in DMEM/F-12 (Invitrogen) with 10% FBS (Sigma) and HEK293-mGPR40 in DMEM (Invitrogen) supplemented with 10% FBS in 384-well poly-D-Lysin coated microplates (Greiner) at 37°C, 95% humidity and 5% CO2. After 19 hours cell media was replaced with Calcium4 dye (Molecular Devices) in HBSS (Invitrogen), 20 mM HEPES (Invitrogen), pH 7.4 and 1.25 mM Probenecid (Sigma). After 1 hour at room temperature agonists were added and calcium mobilization was detected as change in fluorescence (λex = 488 and λem = 540 nm) using a FLIPR^TETRA (Molecular Devices).

Caco-2 cells = test system: Caco-2 cells; parameters: method as in PMID 26791484; conditions: cited from earlier work
GPR120 [1] = test system: GPR120; parameters: method as in PMID 24997608; conditions: read-out: EC50 in β-arrestin; cited from earlier work
GPR120 [2] = test system: GPR120; parameters: method as in PMID 24997608; conditions: read-out: EC50 in calcium mobilization; cited from earlier work
lean female mice = assay: Intravenous glucose tolerance test (IVGTT) in lean female mice; type: in vivo, mouse; conditions: 30 nmol/kg i.p. 15 min prior to IVGTT; trend towards lower response
Method: Lean female mice (body weight 20–25 g), were randomized on body weight and fasted 4 hours prior to the IVGTT. Metabolex-36 (100 mg/kg) was administered orally 60 min and AZ13581837 (35mg/kg) 30 min before the IVGTT ([…]). Control mice were given vehicle (0.5% HPMC, 0.1% Tween-80) at corresponding time points. The specificity of AZ13581837 was examined in IVGTT in GPR120 null mice. GPR120 agonist doses were selected to reach plasma levels of at least 10 times over the in vitro EC50 value to achieve maximal activation of GPR120 (S2 Appendix). Thirty minutes prior to the glucose load, the mice were anaesthetised (20 mg/kg fluanisone/0.8 mg/kg fentanyl (Hypnorm®, Janssen, Beerse, Belgium) and 10 mg/kg midazolam (Dormicum®, Hoffman-LaRoche, Basel, Switzerland)) to allow for rapid blood sampling. The mice were kept at a heating pad to maintain body temperature.
In separate experiments, mice were pretreated with the GLP-1 receptor antagonist exendin 9–39 (30 nmol/kg, Bachem; intraperitoneally) alone or in combination with the GPR120 agonists, 15 min prior to the IVGTT. Insulin and glucose were measured 0, 1, 5, 10, 20 and 40 min after intravenous (iv) glucose administration. In separate groups of mice total GLP-1 levels were measured 60 min after oral administration of Metabolex-36 or 30 min after AZ13581837 and in corresponding vehicle (0.5% HPMC, 0.1% Tween-80) dosed mice. Blood samples were collected in EDTA coated tubes, centrifuged at 10000xg for 4 min, and plasma was separated and stored frozen until analyzed.
In the IVGTT, the acute insulin response (AIR) was calculated as the mean of suprabasal 1 and 5 min values, and the glucose elimination was quantified using the glucose elimination constant (KG) calculated as the slope of the logarithmic transformation of circulating glucose between 1 and 20 min after the glucose bolus. Multiple comparisons between the different groups were performed by one-way ANOVA. Tukey’s or Bonferroni’s post hoc test were used to calculate statistical differences between the groups. Significant statistical difference was considered at p<0.05. Data are presented as mean ± SEM.

[3] = test system: islets from GPR120 null mice; assay: cAMP production in dispersed islet cells from GPR120 null mice; type: cell-based, mouse; conditions: 50 nM Exendin-4
Method: (§1) Mouse islets were isolated from pancreas by collagenase digestion, handpicked under microscope following multiple washing steps and dispersed to single cells using TrypLE Express (Gibco). The dispersed islet cells (20 000 cells/well) were incubated with the GPR120 agonists for 30 min in 96-well black plates (Corning) at 37°C in Krebs ringer phosphate Hepes buffer, pH 7.4, with 11 mM Glucose, 0.1% BSA and 0.5 mM 3-isobutyl-1-methylxanthine followed by addition of d2-labeled cAMP and anti-cAMP Cryptate in conjugation and lysis buffer (Cisbio). Produced cAMP was detected with homogenous time resolved fluorescence (HTRF) (λex = 340 nm, λem = 665 and 615 nm) using a Pherastar (BMG Labtech).

[4] = test system: dispersed wt mouse islets cell; assay: cAMP production in dispersed wild type mouse islet cells; type: cell-based; conditions: 50 nM Exendin-4
Method: as §1

- EC50 (mouse GPR40): 900 ± 300 nM
Molecule: O=C(O)CCc1ccc(NCc2cccc(Oc3ccccc3)c2)cc1 [GW9508]
- β-arrestin-2 recruitment in Caco-2 cells (Caco-2 cells): recruited β-arrestin-2

Molecule: Exendin 9–39
- Insulin secretion, exendin 9–39 alone (lean female mice): no significant effect

Molecule: Exendin-4
- cAMP production in islet cells from GPR120 null mice (positive control) [3]: significantly stimulate cAMP production
- cAMP production in islet cells from wt mice (positive control) [4]: significantly stimulate cAMP production
